Test results: patent publication US10759777B2, “Carbazole-containing amides, carbamates, and ureas as cryptochrome modulators” (Synchronicity Pharma, Inc., priority 2014, dated 2020)

Tests used:
[1] = system: db/db mouse model of type II diabetes; test: Compound 72 administered over 7 days in db/db mice (glucose, insulin, compound levels); assay type: in vivo; details: 50 mg/kg PO QD 7 days
Excerpt: (§1) Significance was accepted when p<0.05.

[2] = system: core clock genes (Per2, Bmal1, Cry1, Cry2) and gluconeogenic genes (Pckl, G6Pc) in liver; test: 24 hour gene expression studies, liver mRNA by RT-qPCR; assay type: in vivo, mouse; details: 50 mg/kg PO BID
Excerpt: Male C57Bl/6J DIO mice were purchased at 17 weeks of age (The Jackson Laboratory, Sacramento, Calif.) and acclimated for a 2 week period before being used for the experiment. Overall group size was 15 per treatment, divided into 5 time-points to give a final group size of 3 mice.
In total, each mouse received 5 doses of compound over the course of the experiment. Mice were weighed and randomly assigned to each treatment based on weight the evening before the commencement of the study. Beginning on Day 3 at 3:00 PM, a group of animals from the vehicle and Compound 72-treated groups were euthanized using CO2 asphyxiation, 50 mg of liver, epididymal fat, and skeletal muscle, respectively, were excised and placed in tube containing 500 μl of RNALater. This procedure took place for the remainder of the time-point groups at their given harvest times. Plasma samples were also taken for each animal and frozen, to be used for later measurement of compound levels.
E.Z.N.A.® HP Total RNA Isolation Kits (R6812-01 and the protocol described in the Manual, Revised 2010) were utilized to prepare and isolate RNA from the liver samples. To prepare the RNA samples, 10-30 mg of sample was removed from RNA-Later and placed in a 1.5 ml microfuge tube. GTC lysis buffer (700 μl) was added to the tissue, which was homogenized with a rotor-stator homogenizer (e.g. Tissue-Tearor, Model #985370 BioSpec Products with 4.5 mm probe, Cat. #985370-04), and then centrifuged at full speed (≥13,000×g) for 5 minutes. The cleared supernatant was transferred by pipetting to a DNA Clearance Column Pre-inserted in a 2 mL Collection Tube. The assembled column was centrifuged at 13,000×g for 1 minute, and the flow-through was saved. An equal volume (700 μl) of 70% ethanol was added to the lysate and mixed. The sample was then applied to a HiBind RNA spin column placed into a 2 ml collection tube, which was centrifuged at 10,000×g for 60 seconds at room temperature. RNA Wash Buffer I (250 μl) was added by pipetting directly onto a new HiBind RNA column inserted in a 2 ml collection tube. The assembled column was centrifuged at 10,000×g for 60 seconds. The RNA column was placed into a new 2 ml collection tube. DNase I stock solution is pipetted (75 μl) directly onto the surface of the HiBind RNA resin in each column (Using DNAse Digestion with RNase Free DNase Set (E1091): for each HiBind RNA column, the DNase I stock solution was prepared as followed: E.Z.N.A.® DNase I Digestion Buffer 73.5 μl, RNase Free DNase I (20 Kunitz/μl) 1.5 μl=Total Volume 75 μl). The column with bound RNA was incubated at room temperature (25-30° C.) for 15 minutes. RNA Wash Buffer I (500 μl) was added to the column and placed on a bench top for 2 minutes. After centrifuging at 10,000×g for 60 seconds, discarding the flow-through, 500 μl of RNA Wash Buffer II was added and centrifuged at 10,000×g for 60 seconds. Another 500 μl of RNA Wash Buffer II was added and the column assembly was centrifuged at 10,000×g for 60 seconds. The column was centrifuged for 2 minutes at maximum speed to completely dry the HiBind matrix. The column was placed in a clean 1.5 ml microcentrifuge tube and 40-70 μl of molecular biology grade water is added. […]
RediPlate 96 RiboGreen RNA Quantification Kit (Invitrogen) RediPlate standard curve was prepared by transferring 20 l reconstituted RNA standard to a RediPlate well reconstituted in 180 l RediPlate TE buffer. […]

C57/Bl6J DIO mice = test: Increasing dosages of Compound 72 in diet-induced obesity (DIO) mouse model; assay type: in vivo; details: 10, 30, 100 mg/kg PO QD 7 days
Excerpt: Male C57/Bl6J DIO mice were obtained from The Jackson Laboratory (Sacramento, Calif.). […] Animals were accustomed to these conditions for at least 2 weeks before experimentation and used at approximately 24 weeks of age.
as §1
Male C57/Bl6J DIO mice were obtained from The Jackson Laboratory (Sacramento, Calif.). […] Animals were accustomed to these conditions for at least 2 weeks before experimentation and used at approximately 26 weeks of age.

[3] = system: db/db mouse model of type II diabetes; test: Increasing dosages of Compound 72 over 7 days in db/db mice; assay type: in vivo
Excerpt: as §1

O=C1NCCN1CC(O)Cn1c2ccc(F)cc2c2cc(F)ccc21 (stereo not drawn) [Compound 72, 1-(3-(3,6-difluoro-9H-carbazol-9-yl)-2-hydroxypropyl)imidazolidin-2-one]
OGTT glucose course ([1]; db/db mice): lower than the vehicle control group
reduction of HOMA-IR ([1]; vs vehicle): 33%
reduction of insulin at t=0 ([1]; vs vehicle): 20%
reduction of insulin at t=2 hr ([1]; vs vehicle): 21%
Cry2 mRNA in liver (daytime peak) ([2]; C57Bl/6J DIO and Balb/c mice): strongly attenuated
Per2 mRNA in liver ([2]; C57Bl/6J DIO and Balb/c mice, over 24 hours, vs vehicle): suppressed
circadian pattern of mRNAs for gluconeogenic genes Pckl and G6Pc ([2]; C57Bl/6J DIO mice, relative to vehicle): substantially altered
Bmal1 mRNAs in liver ([2]; both strains, at ZT8 and 32 hours after ZT0, vs vehicle): substantially increased
Cry1 mRNA in liver ([2]; during its peak of expression in the dark period): suppressed
OGTT glucose excursion following a glucose load (C57/Bl6J DIO mice): reduction in glucose excursion
reduction of HOMA-IR compared to vehicle ([3]; 100 mg/kg PO QD 7 days): 34%
OGTT glucose excursion ([3]; 10, 50, 100 mg/kg PO QD 7 days): dose dependent effect on glucose excursion
